We go through 90 compounds from PubChem BioAssay AID743417 (Broad Institute, 2014).

Inconclusive results are not listed. The source made the active and inactive calls.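 Rule for the calls: active = compounds lowering the luciferase signal with a fitted half-maximal dose at most twice their top valid dose (cut at about 30 µM in these data); inconclusive = flat fits with moderate signal loss, or poor fits; inactive = the rest.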

For this experiment, the system named is Clone20 osteoblast Shn3 3'UTR firefly luciferase, 24 h. Kind of experiment: Schnurri-3 3'UTR-luciferase signal suppressors – cell-based, Clone20 osteoblasts, luminescence, dry powder, set 2, dose response (AID 743417).
In the case of `NC(=Nc1nc(-c2ccccn2)cc2ccccc12)c1ccccn1`, the concentration at half-maximal activity (AC50) (commonly the midpoint of the concentration-response curve, whichever way the signal moves) was less than 0.26 µM. Then `CC1=C(C(=O)NC2CCCc3c2cnn3-c2cccc(C)c2C)OCCO1` (stereo not given), with 3.49 µM; and `COc1cc2nc(N3CCN(c4cc(C)ccc4C)CC3)nc(N)c2cc1OC`, with 5.44 µM; and `CCOC(=O)Oc1c(OC)cc(C(=O)O[C@@H]2C[C@@H]3CN4CCc5c([nH]c6cc(OC)ccc56)[C@H]4C[C@@H]3[C@H](C(=O)OC)[C@H]2OC)cc1OC`, with 10.7 µM. Then `CC(C)n1c(/C=C/[C@@H](O)C[C@@H](O)CC(=O)O)c(-c2ccc(F)cc2)c2ccccc21`, with 2.4 µM.

`COc1ccc(NC(=O)/C(Cl)=C(/Cl)S(=O)Cc2ccccc2)cn1` (stereo not given): the AC50 was less than 0.26 µM. Then `COc1ccc(CNC(=O)c2cc3c(C)nc4ccccc4c3o2)c(OC)c1`, with 3.22 µM; and `Cc1nc2c(OCc3ccc(Cl)cc3Cl)cccn2c1N(C)CC1CC1`, with 10 µM. On to `Clc1cc2cccnc2c2ncccc12`, for which the AC50 was 4.06 µM.

On to `Cc1cccc(NC(=O)c2nc(S(=O)(=O)Cc3ccccc3)ncc2Cl)c1`, for which the AC50 is 2.66 µM. Then `CC[C@H](C)[C@H]1O[C@]2(CC[C@@H]1C)C[C@@H]1C[C@@H](CC=C(C)[C@@H](O[C@H]3C[C@H](OC)[C@@H](O[C@H]4C[C@H](OC)[C@@H](O)[C@H](C)O4)[C@H](C)O3)[C@@H](C)C=CC=C3CO[C@@H]4[C@H](O)C(C)=C[C@@H](C(=O)O1)[C@]34O)O2`, with 6.32 µM.

Turning to `O=C(Nc1cccc(Cl)c1Cl)C1CC(=O)N(c2ccc(Br)cc2)C1` (stereo not given), the concentration at half-maximal activity (AC50) is 8.23 µM. Then `CC(C)c1nnc(NC(=O)c2nc(S(=O)(=O)Cc3ccccc3)ncc2Cl)s1`, with 0.876 µM; and `C=C1C(=O)OC2CC1C(OC(C)=O)CC(C)=CCCC(C)=CCCC2(C)O` (stereo not given), with 0.91 µM; and `COc1cc(C)c(C(=O)CC(=O)c2c(C)cc(OC)cc2C)c(C)c1`, with 7.4 µM.

With `COc1ccc(-c2cc3nc(C)n(N)c(=O)c3s2)cc1`, the AC50 was 1.13 µM. Then `Cn1cc([N+](=O)[O-])c(C(=O)Nc2sc3c(c2C#N)CCC3)n1`, with 0.88 µM.

Turning to `CC(C)Cn1c(N)c(C(=O)CSc2ccc3c(c2)OCCO3)c(=O)n(C)c1=O`, the half-maximal activity concentration (AC50) was 0.674 µM.

In the case of `COc1ccc(C(NC(C)=O)c2ccc3cccnc3c2O)c(OC)c1` (stereo not given), the AC50 was 1.74 µM. Then `COc1ccc(CNCCC(c2ccc(OC(C)C)cc2)c2ccccc2OC)cc1OC` (stereo not given), with 4.35 µM.

Consider `CCC(=O)NC(C)c1cc(Cl)c2cccnc2c1O` (stereo not given), for which the AC50 was 5.19 µM. Then `O=C(NNC(=O)C1CCN(S(=O)(=O)c2ccc(Cl)cc2)CC1)c1ccccc1O`, with 18.5 µM. Then `C=CCSc1nc2ccccc2n1C(=O)/C=C/c1cc(OC)c(OC)c(OC)c1`, with 1.13 µM; and `CC(Oc1cccc(Br)c1)C(=O)NNC(=O)c1ccccn1` (stereo not given), with 3.36 µM. Then `CCCCOC(=O)c1[nH]c2c(c1C)C(=O)CC(c1cc(OC)c(OC)c(OC)c1)C2` (stereo not given), with 1.35 µM. In the case of `CC/C(=C/c1ccccc1)c1cccc2[nH]c3c(OC)cccc3c12`, the AC50 was 32.8 µM. As for `COc1ccc2c(c1OC)C(=O)N1c3ccccc3C(=O)N(c3ccccc3F)C21` (stereo not given), the AC50 is 11.6 µM.

Regarding `CCCC(=O)N1CCN(c2ccc(NC(=O)c3cc4ccccc4o3)cc2Cl)CC1`, the AC50 is 4.1 µM. For the compound `CCn1c(C)cc(C(=O)COC(=O)c2ccccc2[N+](=O)[O-])c1C`, the AC50 was less than 0.26 µM. Then `CCC(=O)NC(c1ccc(Cl)cc1Cl)c1ccc2cccnc2c1O` (stereo not given), with 1.19 µM.

With `CN(Cc1ccc(Cl)c(Cl)c1)C(=O)c1cccc(S(=O)(=O)N2CCN(Cc3ccccc3)CC2)c1`, the AC50 was 3.47 µM.

With `COc1ccccc1-c1c(-c2ccc(O)cc2O)n[nH]c1C(F)(F)F`, the concentration at half-maximal activity (AC50) is 0.708 µM. Then `CN(Cc1nccs1)C(=O)c1cc(COc2cccc3cnccc23)on1`, with 2.77 µM.

Turning to `CCSc1nc2ccccc2n1C(=O)/C=C/c1ccc(OC)c(OC)c1`, the AC50 was 0.962 µM. As for `Cc1ccc(-c2nc(NC(=O)c3nn(C)cc3[N+](=O)[O-])sc2C)cc1C`, the concentration at half-maximal activity (AC50) is 2.25 µM.

On to `Cn1cccc1C(=O)NC(=O)COC(=O)c1ccc(S(C)(=O)=O)c([N+](=O)[O-])c1`, for which the AC50 is 15.1 µM. Then `O=C(c1cc2sccc2n1Cc1ccc(F)cc1)N1CCN(c2nc3ccccc3s2)CC1`, with 1.36 µM; and `COc1ccc(C(=O)NCCN(C)C)c2nc3ccccc3cc12`, with 5.78 µM; and `CCCCNc1c(-c2cccc(-c3ccc(OC)cc3)c2)nc2cc(C)ccn12`, with 12 µM.

`Cc1ccc(C)c(S(=O)(=O)Nc2ccc(-n3cnnn3)cc2)c1`: the AC50 was > 70 µM (inactive). Then `c1csc(CNc2ncnc3sccc23)c1`, with 1.8 µM. Then `COc1ccccc1-c1cc(C(F)(F)F)nc(S(=O)(=O)CCCC(=O)Nc2cccnc2Cl)n1`, with 10.6 µM; and `CSc1nc(N2CCN(Cc3ccc4c(c3)OCO4)CC2)c2ccccc2n1`, with 24.1 µM. In the case of `CCc1ccc(OCC(=O)NC(NC(=S)Nc2ccc(Cl)cc2)C(Cl)(Cl)Cl)cc1` (stereo not given), the AC50 is 4.96 µM.

For `Cc1c(Cl)sn(-c2ccc(Cl)cc2)c1=O`, the AC50 was 0.728 µM. In the case of `N=c1n(Cc2ccccc2)c2ccccc2n1CC(O)COc1ccc(Cl)cc1Cl` (stereo not given), the AC50 is 2.89 µM. Consider `CCOc1ccc(S(=O)(=O)N(C)c2ccc(OCC(=O)Nc3nc4ccccc4s3)cc2)cc1`, for which the AC50 was 2.82 µM. Then `COc1ccc(Cn2c(SCc3ccccc3C)nc3cc(OC)c(OC)cc3c2=N)cc1`, with 5.46 µM; and `COc1ccc(NC(=O)CSc2ncccc2C(=O)OC(C)C)cc1OC`, with 4.1 µM.

As to `COc1ccc(NS(=O)(=O)c2ccc(-c3cnc(C4CC4)o3)cc2)cc1OC`, the AC50 is 1.33 µM. Then `CS(=O)(=O)c1ccc(C(=O)OCC(=O)NCc2cccs2)cc1[N+](=O)[O-]`, with 2.07 µM; and `Cc1cc(Sc2ncnc(N)c2[N+](=O)[O-])ncn1`, with 5.7 µM; and `Cc1nc2nc(C)n(CCN3CCOCC3)c(=O)c2c(-c2cccc([N+](=O)[O-])c2)c1C(=O)CCCCCCCCCCN1CCC(c2ccccc2)(c2ccccc2)CC1`, with 7.38 µM.

As to `CN(C)c1ccc(/C=C/c2ccc3c4ccccc4ccc3[n+]2-c2ccccc2)cc1`, the AC50 was less than 0.26 µM. With `O=C(Nc1ccc2nc3n(c(=O)c2c1)CCCCC3)c1cc([N+](=O)[O-])ccc1F`, the AC50 is 14.1 µM. Consider `Cc1cc2c(cc(C(=O)N3CCC(C(=O)NC4CCCC4)CC3)n2Cc2c(F)cccc2Cl)o1`, for which the AC50 was 4.81 µM. Then `COc1ccccc1N1CCN(c2ncc(C(=O)N3CCN(c4cccc(Cl)c4)CC3)c3ccccc23)CC1`, with 0.572 µM; and `FC(F)(F)c1nc(-c2cccs2)ncc1-c1nnnn1-c1ccc(Cl)cc1`, with 2.1 µM. Then `Cc1nc2ccccc2cc1OCc1ccc(F)cc1`, with 1.7 µM. Turning to `Cc1ccc(NC(=O)C2=C(c3ccccc3)S(=O)(=O)CCS2(=O)=O)cc1`, the half-maximal activity concentration (AC50) is 0.558 µM. Then `CCCCn1c(-c2nonc2NC(=O)c2ccccc2Cl)nc2ccccc21`, with 1.39 µM. Turning to `Cc1cc(C)c2nc(NNC(=O)c3ccc(S(=O)(=O)N4CC(C)CC(C)C4)cc3)sc2c1` (stereo not given), the AC50 was 2.28 µM. As for `CCOc1ccc(OCC(=O)N(CCC2=CCCCC2)c2c(N)n(Cc3ccccc3)c(=O)[nH]c2=O)cc1`, the AC50 is 8.66 µM. Then `Cc1ccc(Nc2c(-c3ccccn3)nc3cc(C)ccn23)cc1`, with 1.36 µM; and `CC(=O)O[C@H]1CC[C@@]2(C)C(=CC[C@H]3[C@@H]4CC[C@H](C(C)=O)[C@@]4(C)CC[C@@H]32)C1`, with 28.5 µM; and `CCN1C(=O)C(=Cc2cccc(OC)c2Oc2ccc([N+](=O)[O-])cc2[N+](=O)[O-])SC1=S`, with 1.89 µM. As for `COc1ccc(OC)c(NC(=O)CN(Cc2ccc(F)cc2)C2CCCCC2)c1`, the AC50 is 4.99 µM. With `c1ccc2c(-c3[nH]ncc3CNCCCn3ncc4ccccc43)cccc2c1`, the AC50 is 3.25 µM.

On to `COc1ccc(-c2coc3c(C(=O)NCc4ccc(OC)c(OC)c4)cccc23)c(C)c1`, for which the AC50 was 0.722 µM. Regarding `C#CC(=O)N(c1ccc(OC)cc1OC)C(C(=O)NC1CCCC1)c1cccs1` (stereo not given), the AC50 is 7.12 µM. As for `CCOc1ccccc1NC(=O)c1nc(S(=O)(=O)Cc2ccccc2)ncc1Cl`, the AC50 is 0.376 µM. As for `CCCC(=O)NC(c1ccccc1)c1ccc2cccnc2c1O` (stereo not given), the half-maximal activity concentration (AC50) was 1.99 µM.

On to `Cn1c(=O)c2[nH]c(CCCCCCCCc3nc4ccccc4[nH]3)nc2n(C)c1=O`, for which the AC50 was 3.98 µM. Then `CCOC(=O)c1ccc(NC(=O)c2nc[nH]c2C(=O)NCCNC(=O)c2[nH]cnc2C(=O)Nc2ccc(C(=O)OCC)cc2)cc1`, with 5.51 µM. Take `CCOC(=O)C1(Cc2ccc(Cl)cc2)CCN(C(C)Cc2ccc(O)c(OC)c2)CC1` (stereo not given): the half-maximal activity concentration (AC50) was 1.33 µM. For the compound `Oc1c(CN2CCN(c3ccc(F)cc3)CC2)cc(Cl)c2cccnc12`, the AC50 is 1.32 µM. As for `Cc1cc(Br)c(S(=O)(=O)NCc2ccncc2)cc1C`, the concentration at half-maximal activity (AC50) was 1.41 µM. On to `Nc1cc2c(cc1Br)[nH]c(=O)c1ccccc12`, for which the AC50 was 5.46 µM. `Cc1ccnc2c1ccc1c(C)ccnc12`: the AC50 was 0.857 µM. Turning to `CN1OC[C@@H]2CN[C@H](c3ccc(-c4cc5ccccc5o4)cc3)C[C@@H]21`, the AC50 was less than 0.26 µM.

On to `CC[C@]12c3[nH]c4cc(CCC(=O)N(C)C)ccc4c3CCN1C(=O)[C@@H](CC(=O)NC/C=C(\C)CCC=C(C)C)C[C@@H]2C(=O)N1CCN(C(=O)c2ccco2)CC1`, for which the AC50 was 1.68 µM. Then `COc1ccc(COc2ccccc2C(=O)NCc2ccccc2)cc1F`, with 4.76 µM; and `OCCCNc1cc(-c2ccnc(Nc3cccc(Cl)c3)n2)ccn1`, with less than 0.26 µM; and `O=C(OCc1ccccc1)c1ccc(NCc2cc(O)ccc2O)cc1`, with 0.711 µM. Take `COc1ccccc1CNc1nc(Nc2cccc(-c3cnco3)c2)c2sccc2n1`: the AC50 is 5.61 µM. With `Cc1cc2c(cc(C(=O)OC(C(=O)NC3CCCCC3)C(C)C)n2C)o1` (stereo not given), the concentration at half-maximal activity (AC50) is 5.9 µM. Then `C=C1CC2(CC(c3ccccc3)OC(c3ccccc3)C2)OC1=O` (stereo not given), with 2.49 µM; and `S=C(NCCCCN(Cc1ccc(Cl)cc1)c1ccc(Br)cn1)NCCCc1cnc[nH]1`, with 7.24 µM. Then `O=[N+]([O-])c1cc2c(c(CSc3nnc(Nc4ccccc4)s3)c1)OCOC2`, with 3.62 µM; and `Cc1cc(CN2CCOCC2)c(O)c(C2(C)CCCCC2)c1`, with 32.3 µM.
